Laboratory results reported in patent US7166607B2, “Substituted indoles” (AstraZeneca AB, priority 2002, dated 2007).

Legend:
rhCRTh2 = target: T1, rhCRTh2 (Homo sapiens, UniProt Q9Y5Y4); assay: Ligand Binding Assay ([3H]PGD2 SPA, HEK cell membranes); details: [3H]PGD2 displacement, membranes of HEK cells expressing rhCRTh2/Gα16, SPA beads, 2 hours room temperature
T1 construct: expressed in transfected cells; host or cells: HEK cells (stably transfected, geneticin selection; expression induced with sodium butyrate); membrane preparation
T1 sequence (Q9Y5Y4 1-395): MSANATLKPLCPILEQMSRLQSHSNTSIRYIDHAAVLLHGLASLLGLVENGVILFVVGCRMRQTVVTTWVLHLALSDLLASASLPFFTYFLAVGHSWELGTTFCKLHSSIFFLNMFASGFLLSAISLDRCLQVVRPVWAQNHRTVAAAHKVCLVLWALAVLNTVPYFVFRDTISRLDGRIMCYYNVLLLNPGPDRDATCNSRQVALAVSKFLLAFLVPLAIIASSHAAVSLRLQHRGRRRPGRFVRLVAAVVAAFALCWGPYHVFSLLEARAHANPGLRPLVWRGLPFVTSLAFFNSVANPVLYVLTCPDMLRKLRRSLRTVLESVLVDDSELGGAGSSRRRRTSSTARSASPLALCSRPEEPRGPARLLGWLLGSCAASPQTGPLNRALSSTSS
Protocol: [^3H]PGD2 was purchased from Perkin Elmer Life Sciences with a specific activity of 100–210 Ci/mmol. All other chemicals were of analytical grade.
HEK cells expressing rhCRTh2/Gα16 were routinely maintained in DMEM containing 10% Foetal Bovine Serum (HyClone), 1 mg/ml geneticin, 2 mM L-glutamine and 1% non-essential amino acids. For the preparation of membranes, the adherent transfected HEK cells were grown to confluence in two layer tissue culture factories (Fisher, catalogue number TKT-170-070E). Maximal levels of receptor expression were induced by addition of […] sodium butyrate for the last 18 hours of culture. The adherent cells were washed once with phosphate buffered saline (PBS, 50 ml per cell factory) and detached by the addition of 50 ml per cell factory of ice-cold membrane homogenisation buffer [20 mM HEPES (pH 7.4), 0.1 mM dithiothreitol, 1 mM EDTA, 0.1 mM phenyl methyl sulphonyl fluoride and 100 μg/ml bacitracin]. […] The final pellet was re-suspended in 4 ml of membrane homogenisation buffer per cell factory used and the protein content determined. […]
All assays were performed in Corning clear bottomed, white 96-well NBS plates (Fisher). […] (The optimum coating concentrations were determined for each batch of membranes) The beads were pelleted by centrifugation (800×g for 7 minutes at 4° C.), washed once with assay buffer (50 mM HEPES pH 7.4 containing 5 mM magnesium chloride) and finally re-suspended in assay buffer at a bead concentration of 10 mg/ml.
Each assay contained 20 μl of 6.25 nM [^3H]PGD2, 20 μl membrane saturated SPA beads both in assay buffer and 10 μl of compound solution or 13,14-dihydro-15-keto prostaglandin D2 (DK-PGD2, for determination of non-specific binding, Cayman chemical company). […] The assay plate was incubated at room temperature for 2 hours and counted on a Wallac Microbeta liquid scintillation counter (1 minute per well).

| melting point | IC50 (rhCRTh2) | SMILES |
| --- | --- | --- |
| 221 to 223 °C | – | COC(=O)c1ccc2c(c1)c(Sc1ccc(Cl)cc1)c(C)n2CC(=O)O [Example 53, 3-[(4-chlorophenyl)thio]-5-(methoxycarbonyl)-2-methyl-1H-indole-1-acetic acid] |
| 173 °C | 891 nM | Cc1c(Sc2ccc(Cl)cc2)c2c(N3CCN(C(=O)OC(C)(C)C)CC3)cccc2n1CC(=O)O [Example 23, 3-[(4-chlorophenyl)thio]-4-[4-[(1,1-dimethylethoxy)carbonyl]-1-piperazinyl]-2-methyl-1H-indole-1-acetic acid] |
| – | 63.1 nM | Cc1ccc2c(c(Sc3nc(-c4ccccc4)cs3)c(C)n2CC(=O)O)c1S(C)(=O)=O [Example 50, 2,5-dimethyl-4-(methylsulfonyl)-3-[(4-phenyl-2-thiazolyl)thio]-1H-indole-1-acetic acid] |
| – | 4.47 nM | COc1cccc(Sc2c(C)n(CC(=O)O)c3ccc(C)cc23)c1 [Example 29, 3-[(3-methoxyphenyl)thio]-2,5-dimethyl-1H-indole-1-acetic acid] |
